Experimental data as given in patent US11124523B2, “2,6-dioxaspiro [4,5] decane derivatives and preparation method therefor and pharmaceutical applications thereof” (SHANDONG LUYE PHARMACEUTICAL CO., LTD., priority 2017, dated 2021).
Where a name gives a salt, the structure may show the parent alone.

Experiments:
[1] = target: human μ-subtype opioid receptor (hMOR) (Homo sapiens (Human), UniProt P35372); assay: MOR cAMP agonist activity test; format: cell-based; settings: for Emax: maximum effect of enkephalin DAMGO was 100%
Procedure: Test 1: MOR cAMP Agonist Activity Test
1.1 Experimental Purpose: To test the cAMP agonist activity of the compounds of the present disclosure on the human μ-subtype opioid receptor (hMOR).
a. Compound samples were dissolved in DMSO to a storage concentration of 10 mM.
b. A series of diluted samples were formulated on a 384-well LDV plate. A total of 11 concentration points were obtained by 3.162-fold gradient dilution.
c. The series of diluted samples were transferred to an experimental plate (Corning-3824) by using an Echo machine, wherein 30 nL was transferred corresponding to each well.
The experiment was performed using a cAMP detection kit from Cisbio (Cisbio #62AM4PEJ).
a. Assay buffer and stimulation buffer (STB) required for the experiment were formulated.
Stimulation Buffer: formulated with the assay buffer, containing 5 μM NKH477 (CAS: 138605-00-2) and 200 μM IBMX (3-isobutyl-1-methylxanthine)
b. […] The number of cells in the well was 10,000 cells/well.
c. The experimental plate was placed in a 37° C. constant-temperature incubator for incubation. The incubation was performed for 40 minutes.
d. A cAMP standard concentration curve was prepared. The first concentration point was at 2848 nM, and a total of sixteen detection concentrations were obtained by 4-fold gradient dilution. There were three replicates for each concentration point.
e. The cAMP detection kit from Cisbio was provided therein with a d2-labeled cAMP reagent (d2 reagent) and an Eu-labeled cAMP antibody reagent (Crypate reagent). The above two reagents were formulated according to the kit instructions, and then added to the sample experimental plate and to the cAMP standard concentration experimental plate, respectively. It was necessary to add 5 μL of the d2 reagent and then 5 μL of the Cryptate reagent to each well.
f. After the experimental plates were left at room temperature for 60 minutes, the experimental plates were read on the Envision.

hERG potassium channels = hERG potassium channels (Homo sapiens (Human), UniProt Q12809); assay: Effects on hERG potassium channels (Qpatch, CHO-hERG cells); format: cell-based; settings: highest test concentration 40 μM, read-out: IC50 representing the blocking effects of hERG potassium currents
Procedure: 5.1 Experimental Purpose: To test the blocking effects of the compounds of the present disclosure on hERG potassium currents.
a. CHO-hERG cells were cultured in a 175 cm^2 culture flask. When the cells were grown to a density of 60 to 80%, the culture solution was removed, and the cells were washed once with 7 mL of PBS (phosphate buffer solution), and then 3 mL of a cell digestion solution (Detachin) was added for digestion of the cells.
b. After completely digested, the cells were neutralized by adding 7 mL of the culture solution and then centrifuged, the supernatant was removed, and then 5 mL of the culture solution was added for resuspension to ensure a cell density of 2 to 5×10^6 cells/mL.
The single-cell high-impedance sealing and whole-cell pattern formation processes were both carried out automatically by the Qpatch instrument. After the whole-cell recording pattern was obtained, the cells were clamped at −80 millivolts. A preceding voltage of −50 millivolts was applied for 50 milliseconds prior to application of a depolarizing stimulus of +40 millivolts for 5 seconds, and then the cells were repolarized to −50 millivolts and maintained for 5 seconds and then returned back to −80 millivolts. This voltage stimulation was applied every 15 seconds, and data were recorded for 2 minutes, and thereafter the extracellular fluid was administered and data were recorded for 5 minutes, and then the administration process was started. The compound was administered for 2.5 minutes at each test concentration from the lowest test concentration. After all the concentrations of the compound were administered, […] of Cisapride was administered as a positive comparative compound. At least three cells (n>3) were tested for each concentration.
a. A 20 mM compound mother solution was diluted with the extracellular fluid, wherein 5 μL of the 20 mM compound mother solution was taken and diluted 500 times to 40 μM by adding 2495 μL of the extracellular fluid thereto, and then 3-fold serial dilutions were performed sequentially in the extracellular fluid containing 0.2% DMSO to obtain a final concentration to be tested.
b. The highest test concentration was 40 μM, and there were six concentrations in total, i.e., 40, 13.33, 4.44, 1.48, 0.49, and 0.16 μM, respectively.
c. The DMSO content in the final test concentration was not more than 0.2%. This concentration of DMSO had no effect on the hERG potassium channel.
The experimental data were analyzed by XLFit software.

[2] = Pharmacokinetics of the compounds in rats; format: in vivo, rat; settings: for Apparent Clearance Cl: male SD rats, single IV, mg/Kg: Comparative Compound 1 1.80, (+)-5 2.40, (+)-16 1.76, HCl salt of (+)-23 1.71; for Kp at […] / Vd / AUC(0-inf) / half-life / C0: male, SD, rat, iv; for Kp at […]: brain/plasma, read-out: Brain/Plasm Ratio B/P ratio; for Vd / AUC(0-inf) / half-life / C0: plasma; for Vd: read-out: Apparent Distribution Volume Vd; for AUC(0-inf): read-out: Area under the Curve AUC0-inf; for half-life: read-out: Hal-life T1/2 (converted); for C0: read-out: Initial Concentration C0
Procedure: 6.1 Experimental Purpose: To measure, using a LC/MS/MS method, the medicament concentrations of the compound in plasma and specific tissues at different time points after the compound was administered by a single intravenous injection (IV) to 7-9-week-old male SD rats used as test animals, to study on the pharmacokinetic behavior of the compound of the present disclosure in rats, and to evaluate the pharmacokinetic characteristics thereof. 6.2 Compound Formulation
Each of them was formulated at a concentration of 1 mg/mL and was used for IV (intravenous injection) administration.
The actual weights of the rats were weighed on the day of administration and volumes to be administered were calculated. The above formulated solutions to be administered were administered by injection into caudal veins of rats.
About 0.2 mL of whole blood samples were collected by means of jugular vein puncture at the time set in the experimental protocol, and the actual blood collection time was recorded in the experimental records. All the blood samples were added to labeled plastic centrifuge tubes to which K2-EDTA anticoagulant was added in advance. After the blood samples were collected, they were centrifuged at 3,000 g for 10 minutes at 4° C. to prepare the supernatant plasma, and the plasma was stored at −20° C. or a lower temperature for LC-MS/MS analysis.
The concentrations of the compounds in rat plasma were measured by using high-performance liquid chromatography-tandem mass spectrometry (LC-MS/MS). The retention durations of the compounds and internal standard, chromatogram acquisition, and integration of chromatograms were processed using the software Analyst (Applied Biosystems), and data statistics were processed using the software Watson LIMS (Thermo Fisher Scientific) or Analyst (Applied Biosystems). The plasma concentration was processed using a non-compartmental model of WinNonlin™ Version 6.3 (Pharsight, Mountain View, Calif.) which was a pharmacokinetic software, and the pharmacokinetic parameters were calculated using a linear logarithmic trapezoidal method.

[3] = published Phase 2 clinical trial data; compared to morphine; cited from earlier work

Chain of hERG potassium channels (Q12809 whole entry): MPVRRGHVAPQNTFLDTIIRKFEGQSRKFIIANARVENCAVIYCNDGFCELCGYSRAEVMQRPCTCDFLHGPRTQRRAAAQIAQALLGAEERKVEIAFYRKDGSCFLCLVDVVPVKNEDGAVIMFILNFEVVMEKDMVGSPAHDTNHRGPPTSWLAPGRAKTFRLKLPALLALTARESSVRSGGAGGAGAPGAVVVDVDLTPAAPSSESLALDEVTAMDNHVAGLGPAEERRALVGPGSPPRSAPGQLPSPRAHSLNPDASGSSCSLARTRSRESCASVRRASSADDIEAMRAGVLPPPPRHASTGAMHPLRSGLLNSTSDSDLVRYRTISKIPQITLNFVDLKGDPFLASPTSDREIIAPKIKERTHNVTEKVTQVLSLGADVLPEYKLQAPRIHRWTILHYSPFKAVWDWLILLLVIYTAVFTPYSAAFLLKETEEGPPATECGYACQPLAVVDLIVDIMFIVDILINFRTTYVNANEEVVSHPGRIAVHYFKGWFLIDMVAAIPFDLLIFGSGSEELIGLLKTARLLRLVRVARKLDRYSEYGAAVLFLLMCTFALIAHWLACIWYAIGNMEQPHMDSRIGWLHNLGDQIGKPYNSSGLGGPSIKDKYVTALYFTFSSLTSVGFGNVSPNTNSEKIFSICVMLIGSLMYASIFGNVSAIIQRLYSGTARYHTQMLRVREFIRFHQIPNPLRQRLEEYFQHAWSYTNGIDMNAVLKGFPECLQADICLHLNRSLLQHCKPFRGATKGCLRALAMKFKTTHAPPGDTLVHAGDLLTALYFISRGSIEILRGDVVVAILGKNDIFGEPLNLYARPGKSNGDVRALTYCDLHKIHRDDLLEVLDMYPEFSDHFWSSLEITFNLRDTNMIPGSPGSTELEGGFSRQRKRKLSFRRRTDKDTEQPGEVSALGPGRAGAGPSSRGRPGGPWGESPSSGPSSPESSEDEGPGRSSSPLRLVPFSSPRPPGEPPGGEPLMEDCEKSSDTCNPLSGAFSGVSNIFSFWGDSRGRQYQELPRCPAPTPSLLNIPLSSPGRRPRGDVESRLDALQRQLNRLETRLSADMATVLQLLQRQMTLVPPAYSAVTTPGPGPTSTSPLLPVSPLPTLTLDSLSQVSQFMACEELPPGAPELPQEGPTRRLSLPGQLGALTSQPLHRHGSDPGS

Row | SMILES | Emax [1] | IC50 (hERG potassium channels) | EC50 [1] | Apparent Clearance Cl [2] | Kp at […] [2] | Vd [2] | AUC(0-inf) [2] | half-life [2] | C0 [2] | side effects, Phase 2 clinical trial (in words) [3]
1 | c1ccc([C@]2(CCNCc3scc4c3CCC4)CCO[C@]3(CCOC3)C2)nc1 [(+)-2] | 96% | > 40 µM |  |  |  |  |  |  |  | 
2 | Fc1ccc([C@]2(CCNCc3cccc(Cl)c3)CCO[C@]3(CCOC3)C2)nc1 [(+)-16] | 91.7% |  | 0.0005 µM | 6.84 L/h/kg | 4.61 | 6.3 L/kg | 723 nM·h | 54 min | 0.979 µM | 
3 | Cc1cccc(CNCC[C@@]2(c3ccc(F)cn3)CCO[C@]3(CCOC3)C2)c1 [Hydrochloride Salt of (+)-22] | 93.3% | 18.8 µM |  |  |  |  |  |  |  | 
4 | Fc1ccc([C@]2(CCNCc3cccc(F)c3)CCO[C@]3(CCOC3)C2)nc1 [Hydrochloride Salt of (+)-23] | 84.5% |  | 0.001 µM | 6.78 L/h/kg | 2.2 | 5 L/kg | 763 nM·h | 42 min | 1.55 µM | 
5 | COc1ccsc1CNCC[C@@]1(c2ccccn2)CCOC2(CCCC2)C1 [compound 1, Oliceridine, reference compound] | 82.7% | 5.5 µM |  | 4.46 L/h/kg |  | 4.3 L/kg | 1150 nM·h | 48 min | 1.9 µM | significant reduction in side effects compared to morphine
